Measured values from the NIST ThermoML archive (doi:10.1016/j.fluid.2009.08.017).
± gives the expanded uncertainty stated by the source.

Assay: activity coefficient (dimensionless); of the first substance listed, at infinite dilution; xn = mol fraction of the nth substance listed
Conditions: 101 kPa, Liquid, Chromatography, x1 = 0

| Compound | activity coefficient (298.15 K) | activity coefficient (308.15 K) | activity coefficient (318.15 K) | activity coefficient (328.15 K) | activity coefficient (338.15 K) | activity coefficient (348.15 K) | activity coefficient (358.15 K) | activity coefficient (368.15 K) |
| --- | --- | --- | --- | --- | --- | --- | --- | --- |
| C#CCCCCC [1-heptyne] + CCCCCCOCn1cc[n+](C)c1.O=S(=O)([N-]S(=O)(=O)C(F)(F)F)C(F)(F)F | 2.44 ± 0.17 | 2.45 ± 0.17 | 2.45 ± 0.17 | 2.46 ± 0.17 | 2.47 ± 0.17 | 2.48 ± 0.17 | 2.48 ± 0.17 | 2.49 ± 0.17 |
| CCCCCCCCCC [decane] + CCCCCCOCn1cc[n+](COCCCCCC)c1.O=S(=O)([N-]S(=O)(=O)C(F)(F)F)C(F)(F)F | 7.38 ± 0.5 | 7 ± 0.48 | 6.66 ± 0.45 | 6.38 ± 0.43 | 6.11 ± 0.42 | 5.87 ± 0.4 | 5.65 ± 0.39 | 5.46 ± 0.37 |
| C=CCCC [1-pentene] + CCCCCCOCn1cc[n+](C)c1.O=S(=O)([N-]S(=O)(=O)C(F)(F)F)C(F)(F)F | 3.96 ± 0.27 | 3.86 ± 0.26 | 3.77 ± 0.26 | 3.69 ± 0.25 | 3.61 ± 0.25 | 3.53 ± 0.24 | 3.47 ± 0.24 | 3.41 ± 0.23 |
| Cc1ccccc1 [toluene] + CCCCCCOCn1cc[n+](C)c1.O=S(=O)([N-]S(=O)(=O)C(F)(F)F)C(F)(F)F | 1.05 ± 0.066 | 1.06 ± 0.067 | 1.07 ± 0.068 | 1.08 ± 0.068 | 1.09 ± 0.069 | 1.1 ± 0.069 | 1.1 ± 0.07 | 1.11 ± 0.07 |
| C1CCOC1 [tetrahydrofuran] + CCCCCCOCn1cc[n+](COCCCCCC)c1.O=S(=O)([N-]S(=O)(=O)C(F)(F)F)C(F)(F)F | 0.294 ± 0.031 | 0.304 ± 0.031 | 0.314 ± 0.031 | 0.324 ± 0.032 | 0.333 ± 0.032 | 0.343 ± 0.032 | 0.352 ± 0.032 | 0.36 ± 0.033 |
| C#CCCCCC [1-heptyne] + CCCCCCOCn1cc[n+](COCCCCCC)c1.O=S(=O)([N-]S(=O)(=O)C(F)(F)F)C(F)(F)F | 1.37 ± 0.089 | 1.38 ± 0.09 | 1.39 ± 0.09 | 1.39 ± 0.091 | 1.4 ± 0.091 | 1.4 ± 0.092 | 1.41 ± 0.092 | 1.42 ± 0.093 |
| CCCOCCC [dipropyl ether] + CCCCCCOCn1cc[n+](C)c1.O=S(=O)([N-]S(=O)(=O)C(F)(F)F)C(F)(F)F | 2.92 ± 0.2 | 2.89 ± 0.2 | 2.87 ± 0.2 | 2.85 ± 0.19 | 2.83 ± 0.19 | 2.81 ± 0.19 | 2.79 ± 0.19 | 2.77 ± 0.19 |
| c1ccsc1 [thiophene] + CCCCCCOCn1cc[n+](COCCCCCC)c1.O=S(=O)([N-]S(=O)(=O)C(F)(F)F)C(F)(F)F | 0.578 ± 0.041 | 0.575 ± 0.041 | 0.571 ± 0.041 | 0.568 ± 0.041 | 0.565 ± 0.041 | 0.562 ± 0.04 | 0.559 ± 0.04 | 0.557 ± 0.04 |
| C1CCCCC1 [cyclohexane] + CCCCCCOCn1cc[n+](COCCCCCC)c1.O=S(=O)([N-]S(=O)(=O)C(F)(F)F)C(F)(F)F | 2.32 ± 0.16 | 2.22 ± 0.15 | 2.15 ± 0.15 | 2.08 ± 0.14 | 2.01 ± 0.14 | 1.94 ± 0.13 | 1.89 ± 0.13 | 1.84 ± 0.12 |
| C1CCCC1 [cyclopentane] + CCCCCCOCn1cc[n+](C)c1.O=S(=O)([N-]S(=O)(=O)C(F)(F)F)C(F)(F)F | 4.19 ± 0.29 | 3.99 ± 0.27 | 3.82 ± 0.26 | 3.66 ± 0.25 | 3.51 ± 0.24 | 3.38 ± 0.23 | 3.27 ± 0.22 | 3.16 ± 0.22 |
| CCCOCCC [dipropyl ether] + CCCCCCOCn1cc[n+](COCCCCCC)c1.O=S(=O)([N-]S(=O)(=O)C(F)(F)F)C(F)(F)F | 1.49 ± 0.098 | 1.49 ± 0.098 | 1.49 ± 0.098 | 1.5 ± 0.098 | 1.5 ± 0.099 | 1.5 ± 0.099 | 1.5 ± 0.099 | 1.5 ± 0.099 |
| C1CCOC1 [tetrahydrofuran] + CCCCCCOCn1cc[n+](C)c1.O=S(=O)([N-]S(=O)(=O)C(F)(F)F)C(F)(F)F | 0.424 ± 0.035 | 0.438 ± 0.035 | 0.452 ± 0.036 | 0.466 ± 0.036 | 0.479 ± 0.037 | 0.491 ± 0.037 | 0.504 ± 0.038 | 0.515 ± 0.038 |
| C=CCCC [1-pentene] + CCCCCCOCn1cc[n+](COCCCCCC)c1.O=S(=O)([N-]S(=O)(=O)C(F)(F)F)C(F)(F)F | 1.9 ± 0.13 | 1.87 ± 0.13 | 1.83 ± 0.12 | 1.8 ± 0.12 | 1.77 ± 0.12 | 1.75 ± 0.12 | 1.72 ± 0.12 | 1.7 ± 0.11 |
| C#CCCCC [1-hexyne] + CCCCCCOCn1cc[n+](C)c1.O=S(=O)([N-]S(=O)(=O)C(F)(F)F)C(F)(F)F | 1.93 ± 0.13 | 1.94 ± 0.13 | 1.95 ± 0.13 | 1.96 ± 0.13 | 1.97 ± 0.13 | 1.98 ± 0.13 | 1.98 ± 0.13 | 1.99 ± 0.14 |
| CCCCCCCCCC [decane] + CCCCCCOCn1cc[n+](C)c1.O=S(=O)([N-]S(=O)(=O)C(F)(F)F)C(F)(F)F | 23.5 ± 1.6 | 21.7 ± 1.5 | 20.2 ± 1.4 | 18.9 ± 1.3 | 17.7 ± 1.2 | 16.7 ± 1.1 | 15.8 ± 1.1 | 14.9 ± 1 |
| C1CCCCCC1 [cycloheptane] + CCCCCCOCn1cc[n+](COCCCCCC)c1.O=S(=O)([N-]S(=O)(=O)C(F)(F)F)C(F)(F)F | 2.71 ± 0.18 | 2.6 ± 0.18 | 2.5 ± 0.17 | 2.41 ± 0.16 | 2.33 ± 0.16 | 2.25 ± 0.15 | 2.19 ± 0.15 | 2.12 ± 0.14 |
| O [water] + CCCCCCOCn1cc[n+](C)c1.O=S(=O)([N-]S(=O)(=O)C(F)(F)F)C(F)(F)F | 4.37 ± 0.3 | 3.81 ± 0.26 | 3.32 ± 0.23 | 2.9 ± 0.2 | 2.57 ± 0.17 | 2.28 ± 0.16 | 2.04 ± 0.14 | – |
| CCO [ethanol] + CCCCCCOCn1cc[n+](C)c1.O=S(=O)([N-]S(=O)(=O)C(F)(F)F)C(F)(F)F | 1.59 ± 0.11 | 1.44 ± 0.09 | 1.31 ± 0.09 | 1.2 ± 0.08 | 1.1 ± 0.07 | 1.03 ± 0.06 | 0.952 ± 0.06 | 0.891 ± 0.057 |
| CCCCCCCC [octane] + CCCCCCOCn1cc[n+](COCCCCCC)c1.O=S(=O)([N-]S(=O)(=O)C(F)(F)F)C(F)(F)F | 4.8 ± 0.33 | 4.62 ± 0.31 | 4.45 ± 0.3 | 4.3 ± 0.29 | 4.16 ± 0.28 | 4.03 ± 0.27 | 3.92 ± 0.27 | 3.81 ± 0.26 |
| COC(C)(C)C [2-methoxy-2-methylpropane] + CCCCCCOCn1cc[n+](C)c1.O=S(=O)([N-]S(=O)(=O)C(F)(F)F)C(F)(F)F | 1.26 ± 0.08 | 1.29 ± 0.08 | 1.32 ± 0.09 | 1.36 ± 0.09 | 1.39 ± 0.09 | 1.41 ± 0.09 | 1.44 ± 0.09 | 1.46 ± 0.1 |
| C=CCCCC [hex-1-ene] + CCCCCCOCn1cc[n+](COCCCCCC)c1.O=S(=O)([N-]S(=O)(=O)C(F)(F)F)C(F)(F)F | 2.25 ± 0.15 | 2.2 ± 0.15 | 2.15 ± 0.15 | 2.11 ± 0.14 | 2.07 ± 0.14 | 2.04 ± 0.14 | 2.01 ± 0.14 | 1.97 ± 0.13 |
| C=CCCCCCC [oct-1-ene] + CCCCCCOCn1cc[n+](C)c1.O=S(=O)([N-]S(=O)(=O)C(F)(F)F)C(F)(F)F | 7.97 ± 0.54 | 7.67 ± 0.52 | 7.39 ± 0.5 | 7.12 ± 0.49 | 6.89 ± 0.47 | 6.69 ± 0.46 | 6.5 ± 0.44 | 6.34 ± 0.43 |
| C=CCCCCC [1-heptene] + CCCCCCOCn1cc[n+](C)c1.O=S(=O)([N-]S(=O)(=O)C(F)(F)F)C(F)(F)F | 6.16 ± 0.42 | 5.96 ± 0.41 | 5.79 ± 0.39 | 5.61 ± 0.38 | 5.44 ± 0.37 | 5.3 ± 0.36 | 5.18 ± 0.35 | 5.05 ± 0.34 |
| C#CCCCCCC [1-octyne] + CCCCCCOCn1cc[n+](COCCCCCC)c1.O=S(=O)([N-]S(=O)(=O)C(F)(F)F)C(F)(F)F | 1.65 ± 0.11 | 1.66 ± 0.11 | 1.66 ± 0.11 | 1.66 ± 0.11 | 1.67 ± 0.11 | 1.67 ± 0.11 | 1.67 ± 0.11 | 1.67 ± 0.11 |
| CCCCCCCC [octane] + CCCCCCOCn1cc[n+](C)c1.O=S(=O)([N-]S(=O)(=O)C(F)(F)F)C(F)(F)F | 13.6 ± 0.9 | 12.8 ± 0.9 | 12.1 ± 0.8 | 11.5 ± 0.8 | 10.9 ± 0.7 | 10.4 ± 0.7 | 10 ± 0.7 | 9.51 ± 0.65 |
| CCCCCCCCC [nonane] + CCCCCCOCn1cc[n+](COCCCCCC)c1.O=S(=O)([N-]S(=O)(=O)C(F)(F)F)C(F)(F)F | 5.93 ± 0.4 | 5.67 ± 0.39 | 5.42 ± 0.37 | 5.22 ± 0.36 | 5.01 ± 0.34 | 4.84 ± 0.33 | 4.68 ± 0.32 | 4.53 ± 0.31 |
